Experimental data published in US10800807B2, “TGR5 modulators and methods of use thereof” (Intercept Pharmaceuticals, Inc., priority 2015, dated 2020).
Residue numbers refer to the chain shown, from its start. In brackets after ≈: the same amount, converted by molar mass. Where two headings read alike, the source gives them in different places.

Tests used:
[1] = Lipophilicity, 1-octanol/water partition coefficient (shake-flask); type: physicochemical; conditions: pH 8.00, ionized BA
Experimental: The experiments were carried out on 1 mM initial bile salt solution buffered at pH 8.00 with 0.1 M potassium phosphate buffer to ensure complete ionization of the BA. BA concentration in the water phase before and after partition in 1-octanol was measured by HPLC-ESMS/MS as reported below.

[2] = target: bovine serum albumin (Bos taurus, UniProt P02769); test: Albumin binding by equilibrium dialysis; type: in vitro ADME; conditions: 5% bovine serum albumin saline solution, 25° C.
bovine serum albumin, sequence (P02769 25-607): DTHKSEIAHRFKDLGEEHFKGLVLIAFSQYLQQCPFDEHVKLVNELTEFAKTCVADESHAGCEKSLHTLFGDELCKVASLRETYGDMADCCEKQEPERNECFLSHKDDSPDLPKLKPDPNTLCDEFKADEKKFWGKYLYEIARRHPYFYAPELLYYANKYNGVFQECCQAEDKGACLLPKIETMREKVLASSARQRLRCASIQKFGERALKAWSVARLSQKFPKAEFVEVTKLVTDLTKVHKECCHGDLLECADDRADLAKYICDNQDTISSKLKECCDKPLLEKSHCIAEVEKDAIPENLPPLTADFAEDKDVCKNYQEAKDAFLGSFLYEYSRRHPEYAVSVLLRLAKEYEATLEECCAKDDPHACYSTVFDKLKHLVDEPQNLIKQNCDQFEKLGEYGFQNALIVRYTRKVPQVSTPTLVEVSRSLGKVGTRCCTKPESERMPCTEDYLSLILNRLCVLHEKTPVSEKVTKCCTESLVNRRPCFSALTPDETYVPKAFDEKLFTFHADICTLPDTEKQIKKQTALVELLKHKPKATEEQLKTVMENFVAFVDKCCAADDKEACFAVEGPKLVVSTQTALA
Experimental: BA was dissolved at a concentration of […] in 5% bovine serum albumin saline solution and left to stand for 24 hours at 25° C. Two milliliters of this solution was dialyzed in cellulose sacs with a molecular weight cut-off of 12-14 kDa (Spectra/Por; Spectrum Medical Industries Inc., Rancho Dominguez, Calif.) against 25 ml of saline solution. The system was equilibrated by mechanical shaking for 72 hours at 25° C. BA concentrations in the starting solution and in the dialyzed solution were determined by HPLC-ES-MS/MS as reported below.

[3] = Critical micellar concentration (surface tension / dye solubilization); type: physicochemical; conditions: for CMC: BA sodium salts in 0.1 M NaCl, 25° C.; for STCMC: surface tension at CMC
Experimental: In the first method, the surface tension was performed by maximum bubble-pressure method using a Sensadyne 6000 tensiometer (Chem-Dyne Research Corp., Milwaukee, Wis.). The surface tension of aqueous solutions at various concentrations (range 0.1-100 mM) of the BA sodium salts in 0.1 M NaCl was measured at 25° C. The surface tension values were plotted against the logarithm of the bile salt concentration; the regression lines corresponding to the two parts of the curve (monomeric and micellar phases) were calculated using the method of least squares. The critical micellar concentration (CMC) value (mM) was obtained by the intersection of the two lines.
The second method is based on the fact that some dyes, specifically Orange OT ([…]), are almost insoluble in water but dissolve in solutions with micellar aggregates that incorporate them; thus, the intensity of color of the solution increases with bile salt concentration (after CMC achievement). The amount of dye solubilized in relation to bile salt concentration was determined spectrophotometrically.
For each bile acid, various solution at different concentrations, between 50 mM and 0.1 mM with appropriate dilutions, were incubated under stirring at room temperature for 3 days with an excess of Orange OT. Then all the solutions were centrifuged and filtered through a 0.22 μm Millipore fiiter (Millipore Corp., Bedford, Mass.).

[4] = pKa
[5] = Critical micellar concentration (surface tension / dye solubilization); type: physicochemical
[6] = Water solubility; type: physicochemical; conditions: 0.1 M HCl, pH 1.00, 25° C.; for solubility thermodynamic at 1 week: read-out: Ws; for Ws: 1 week
Experimental: BA were suspended in 100 ml of 0.1 M HCl, pH 1.00, and the saturated solutions were transferred to a thermostat-equipped water bath maintained at 25° C. After incubation for 1 week, the solutions were filtered on a Millipore filter ([…]), and the concentration of BA was measured by HPLC-ESMS/MS as reported below.

[7] = target: T1, mouse glutathione transferase-tagged FXR-LBD (Mus musculus, UniProt Q60641); test: FXR AlphaScreen coactivator recruitment assay (mouse); type: biochemical; conditions: mouse FXR-LBD, value in parentheses; for EC50: read-out: (mFXR) EC50; for Emax: read-out: (mFXR) Efficacy
T1 construct: mouse glutathione transferase-tagged FXR-LBD (generated in-house); made in house
T1 sequence (Q60641 264-488 limits assumed): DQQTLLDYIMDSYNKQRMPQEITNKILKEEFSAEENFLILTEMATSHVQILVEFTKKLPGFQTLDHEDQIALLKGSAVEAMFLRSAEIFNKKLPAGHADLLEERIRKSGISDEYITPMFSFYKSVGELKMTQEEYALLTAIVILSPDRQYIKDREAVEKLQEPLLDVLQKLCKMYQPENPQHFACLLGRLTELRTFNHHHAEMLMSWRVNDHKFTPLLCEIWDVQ
Experimental: (§1) Activation of the FXR receptor was determined using a recruitment coactivator assay, namely AlphaScreen technology. The assays were performed using human glutathione transferase-tagged FXR-LBD (Life Technologies, USA) and mouse glutathione transferase-tagged FXR-LBD (generated in-house). Briefly, assays were conducted in white, low-volume, 384-well OptiPlate using a final volume of 25 μL containing 10 nM glutathione transferase-tagged FXR-LBD protein and 30 nM biotinylated Src-1 peptide. The stimulation was carried out with different BA concentrations for 30 minutes at 25° C. […] Dose-response curves were performed in triplicate and Z′ factor was used to validate the robustness of the assay.

[8] = target: T2, TGR5 (Homo sapiens, UniProt Q8TDU6); test: TGR5 activity: intracellular cAMP levels, NCI-H716 cells (HTR-FRET); type: cell-based; set-up: endogenous in cells; host or cells: NCI-H716; conditions: NCI-H716 cells; for Emax: 1 h, Ref. LCA 100% at 10 μM, read-out: TGR5 (NCI-H716) Efficacy; for EC50: cAMP
T2 sequence (Q8TDU6 1-330): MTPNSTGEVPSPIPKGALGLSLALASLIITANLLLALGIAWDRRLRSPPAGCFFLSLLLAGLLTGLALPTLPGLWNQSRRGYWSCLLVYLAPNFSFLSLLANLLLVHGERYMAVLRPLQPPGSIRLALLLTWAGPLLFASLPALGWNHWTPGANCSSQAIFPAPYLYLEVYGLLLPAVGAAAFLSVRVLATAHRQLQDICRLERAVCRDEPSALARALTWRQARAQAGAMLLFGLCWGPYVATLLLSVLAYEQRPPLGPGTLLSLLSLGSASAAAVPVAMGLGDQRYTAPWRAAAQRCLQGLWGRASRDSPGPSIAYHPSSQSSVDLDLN
Experimental: Activation of TGR5 was assessed by measuring the level of cAMP using an HTR-FRET assay. Thus, NCI-H716 cells were cultured on 96-well plates coated with Matrigel (Corning, USA) (0.75 mg/ml) in DMEM supplemented with 10% FCS, 100 units/ml penicillin, and 100 μg/ml streptomycin sulphate. […] The level of intracellular cAMP was determined with Lance kit. Z′ factor was used to validate assays.

[9] = target: T2, TGR5; test: TGR5 activity: cAMP in hTGR5 CHO-k1 cells; type: cell-based; set-up: expressed in transfected cells; host or cells: CHO-k1; conditions: hTGR5 CHO cells; for Emax: 0.5 h, Ref. LCA 100% at 10 μM, read-out: hTGR5 CHO Efficacy; for EC50: cAMP
[10] = target: T3, mTGR5 (Mus musculus, UniProt Q80SS6); test: TGR5 activity: cAMP in mTGR5 CHO-Pi10 clone 4 cells; type: cell-based; conditions: mTGR5 CHO cells, value in parentheses; for Emax: 0.5 h, read-out: (mTGR5 CHO) Efficacy
T3 construct: expressed in transfected cells; host or cells: CHO-Pi10 clone 4
T3 sequence (Q80SS6 1-329): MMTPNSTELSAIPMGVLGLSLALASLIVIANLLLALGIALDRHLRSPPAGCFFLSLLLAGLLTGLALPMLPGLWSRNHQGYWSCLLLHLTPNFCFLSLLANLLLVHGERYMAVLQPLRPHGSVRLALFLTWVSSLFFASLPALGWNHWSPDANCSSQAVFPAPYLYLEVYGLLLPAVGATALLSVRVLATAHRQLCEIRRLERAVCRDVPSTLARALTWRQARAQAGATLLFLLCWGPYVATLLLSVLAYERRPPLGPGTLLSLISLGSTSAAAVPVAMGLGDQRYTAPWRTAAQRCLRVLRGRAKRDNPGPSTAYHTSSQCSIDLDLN

[11] = target: T4, human glutathione transferase-tagged FXR-LBD (Homo sapiens, UniProt Q96RI1); test: FXR AlphaScreen coactivator recruitment assay (human); type: biochemical; set-up: Emax: dose or concentration left out as unconfirmed; conditions: for EC50: human FXR-LBD, AlphaScreen, read-out: hFXR EC50; for Emax: read-out: hFXR Efficacy;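 on hFXR Efficacy: CDCA at 50 µM taken as 100%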
T4 construct: human glutathione transferase-tagged FXR-LBD (Life Technologies, USA); purchased Life Technologies, USA
T4 sequence (Q96RI1 262-486 limits assumed): T1 sequence (Q60641 264-488 limits assumed) with D7H, Y8F, S46N, I50V, A95S, A98S, K107N, V125I, M174I, Y175H
Experimental: as §1

[12] = simulated gastric fluid, thermodynamic from solid

| SMILES | LogPA− [1] | Albumin binding (%) [2] [%] | CMC [3] [mM] | STCMC [3] [Dyne/cm] | pKa [4] | CMpH [5] | solubility thermodynamic at 1 week [6, 12] [µM] | EC50 [7] [nM] | Emax [7] [%] | Emax [8] [%] | EC50 [8] [nM] | Emax [9] [%] | EC50 [9] [nM] | Emax [10] [%] | EC50 [10] [nM] | EC50 [11] [nM] | Emax [11] [%] | solubility thermodynamic at 1 week [6] [µM] | Ws [6] |
| --- | --- | --- | --- | --- | --- | --- | --- | --- | --- | --- | --- | --- | --- | --- | --- | --- | --- | --- | --- |
| C[C@H](CCC(=O)O)[C@H]1CC[C@H]2[C@@H]3[C@H](O)C[C@@H]4C[C@H](O)CC[C@]4(C)[C@H]3CC[C@]12C [CDCA, chenodeoxycholic acid, reference compound] | 2.2 | 96 | 3.2 | 45.5 | 5 | 7 | – | – | – | – | – | – | – | – | – | – | – | – | – |
| CC[C@H]1[C@@H](O)C2C3CC[C@H]([C@H](C)CC(F)(F)C(=O)O)[C@@]3(C)[C@@H](O)CC2[C@@]2(C)CC[C@@H](O)C[C@@H]12 (stereo partly drawn) [Compound 3, 3α,7α,12α-Trihydroxy-6α-ethyl-23,23-gemdifluoro-5β-cholan-24-oic acid] | 1.0 | – | 10 | – | 1.1 | 2.7 | 225 (≈ 106 µg/mL) | – | – | – | – | – | – | – | – | – | – | – | – |
| CC[C@H]1[C@@H](O)C2C3CC[C@H]([C@H](C)CCc4nn[nH]n4)[C@@]3(C)CCC2[C@@]2(C)CC[C@@H](O)C[C@@H]12 (stereo partly drawn) [Compound 15, 3α,7α-Dihydroxy-6α-ethyl-23-(tetrazol-5-yl)-6α-ethyl-24-nor-5β-cholane] | 1.2 | 76 | – | – | 5.59 | – | 132 (≈ 58.7 µg/mL) | 6000 | 222 | 97 ± 7.6 | 5000 ± 1000 | 99 ± 3 | 720 ± 50 | 102 | 440 | 150 ± 50 | 173 ± 22 | – | – |
| CC[C@H]1[C@@H](O)C2C3CC[C@H]([C@H](C)CC(=O)NCCOS(=O)(=O)[O-])[C@@]3(C)CCC2[C@@]2(C)CC[C@@H](O)C[C@@H]12.[Na+] (stereo partly drawn) [Compound 21, Sodium 2-(3α,7α-dihydroxy-6α-ethyl-24-nor 5β-cholan-23-amido)-ethyl sulfate] | 0.9 | 86 | 4 | – | < 1 | – | 1810 | 5400 | 136 | 127 ± 1 | 190 ± 50 | 105 ± 2 | 20 ± 10 | 107 | 70 | 1500 ± 500 | 136 ± 7 | – | – |
| C[C@H](CCC(=O)NCC(=O)O)[C@H]1CC[C@H]2[C@@H]3[C@H](O)C[C@@H]4C[C@H](O)CC[C@]4(C)[C@H]3C[C@H](O)[C@]12C [GCA, reference compound] | −0.4 | 65 | 8 | 48.8 | 3.9 | 6.3 | – | – | – | – | – | – | – | – | – | – | – | 32 (≈ 14.9 µg/mL) | – |
| CC[C@H]1[C@@H](O)C2C3CC[C@H]([C@H](C)C[C@H](C)C(=O)O)[C@@]3(C)[C@@H](O)CC2[C@@]2(C)CC[C@@H](O)C[C@@H]12 (some centres unmarked) [Ref. Cmpd. A, reference compound] | 1.4 | 62 | 2 | 50.1 | 5 | 6.1 | – | – | – | – | – | – | – | – | – | – | – | – | – |
| C[C@H](CCC(=O)NCCS(=O)(=O)O)[C@H]1CC[C@H]2[C@@H]3[C@H](O)C[C@@H]4C[C@H](O)CC[C@]4(C)[C@H]3C[C@H](O)[C@]12C [TCA, reference compound] | −0.5 | 42 | 4 | 51 | <1 ^ | – | – | – | – | – | – | – | – | – | – | – | – | – | hs |
| C[C@H](CCC(=O)NCCS(=O)(=O)O)[C@H]1CC[C@H]2[C@@H]3[C@H](O)C[C@@H]4C[C@H](O)CC[C@]4(C)[C@H]3CC[C@]12C [TCDCA, reference compound] | 0.9 | 70 | 3 | 47.1 | <1 ^ | – | – | – | – | – | – | – | – | – | – | – | – | – | hs |
| C[C@H](CCC(=O)O)[C@H]1CC[C@H]2[C@@H]3[C@@H](O)C[C@@H]4C[C@H](O)CC[C@]4(C)[C@H]3CC[C@]12C [UDCA, ursodeoxycholic acid, reference compound] | 2.2 | 94 | 10 | 50.5 | – | 8.2 | 7 (≈ 2.75 µg/mL) | – | – | – | – | – | – | – | – | – | – | – | – |
